Data from patent publication US20080026065A1, “Powdered Compositions Of Sensitive Active Materials In An At Least Partially Amorphous State” (priority 2004, published 2008).

Assay: Moisture uptake at 75% relative humidity, gravimetric
Format: physicochemical
Conditions: freeze dried matrices, 75% RH atmosphere, 8 hours; for moisture uptake (percentage weight increase): FIG. 1
Experimental: Following lyophilisation the resultant freeze dried matrices were exposed to a 75% RH (Relative Humidity) atmosphere for a period of 8 hours. At intervals over this period, moisture uptake of each sample was measured gravimetrically and calculated as a percentage weight increase of the sample.

| SMILES | moisture uptake (percentage weight increase) | physical quality of sample after moisture exposure |
| --- | --- | --- |
| OC[C@@H](O)[C@@H](O)[C@H](O)[C@H](O)CO [mannitol] | no appreciable moisture uptake | – |
| OC[C@H]1O[C@H](O[C@H]2O[C@H](CO)[C@@H](O)[C@H](O)[C@H]2O)[C@H](O)[C@@H](O)[C@@H]1O [trehalose] | significant moisture uptake | deterioration in the physical quality |
